The subject of series [1] is formulated humanized monoclonal antibody. The series can be described thus: Visual analysis of the antibody formulation with preservative. It is filed as physicochemical. The following applies: for Visual analysis: after 2 days at 50° C. On the procedure:
(§1) The compatibility of six parenteral preservatives (benzyl alcohol, chlorobutanol, methyl paraben, propyl paraben, phenol, and m-cresol) with the formulated humanized monoclonal antibody was tested. The preservatives were added to the formulated antibody based on their commonly used concentration ranges in marketed multidose products (3). Protein aggregation was suspected to be the primary degradation pathway. Preliminary evaluation of the preservatives was done initially by DSC and after 2 days of incubation at 50° C. by visual inspection for appearance and by SEC for soluble aggregates.

For series [2] the test system is unchanged. The series can be described thus: Size-exclusion chromatography (SEC), monomer content. The following applies: for Effect of the preservative on antibody stability (in words): preliminary screening, 2 days at 50° C.; for Monomer (%): 1 week at 45 ° C.; for Percent monomer (by SEC): after 2 days at 50° C. It is filed as physicochemical. The protocol: as §1
(§2) Because of the results seen in the preliminary evaluation, additional analyses were done using lower concentrations of the preservatives.
The monomer content, soluble aggregates, and clips due to hydrolysis were monitored by size-exclusion chromatography. The analytical system employed consisted of an HPLC pump (Perkin Elmer, Series 410) and an autosampler (Perkin Elmer, ISS 2000) connected to a diode array detector (Perkin Elmer, 235C). Two size-exclusion chromatography columns (Tosohaas TSK-Gel, G3000SWXL,), connected in tandem, were used for sample separation. The composition of the mobile phase was 200 mM KPO4, 150 mM NaCl, pH 6.9. Samples were diluted to 1 mg/mL and a sample volume of 40 μL was injected for analysis. The flow rate was 1.0 mL/min, and detection was at 220 and 280 nm.
On the technique in general: SEC sorts molecules by how far they enter the pores of the column.

Series [3] has as its system Candida albicans, and Aspergillus niger. The series can be described thus: Preservative screening test (modified USP/EP preservative efficacy test), fungi. It is filed as cell-based. The following applies: for Fungi × 10^5 (cfu/mL): 1 week at 25 ° C., total fungal count 2.84 × 10^5 cfu/mL. On the procedure: (§3) The efficacy of the preservative against various microorganisms was measured using a modified USP/EP preservative efficacy test. These tests were conducted at Microconsult Inc. (Dallas, Tex.). In the procedure, formulations were tested against the following microorganisms: Escherichia coli, Staphylococcus aureus, Pseudomonas aeruginosa, Candida albicans, and Aspergillus niger. The three bacterial strains were inoculated together at a total concentration of ˜10^5 cfu/mL, and the two fungi were inoculated together at a total concentration of ˜10^5 cfu/mL. Samples were incubated for 7 days at room temperature (25° C.), and the total bacterial and fungal counts were measured using a colony counter. The log reduction (LR) values for the bacterial and fungal counts were calculated as log (initial count/final count).
(§4) In the unmodified USP/EP preservative efficacy tests, each microorganism is tested separately at a concentration of ˜10^5 cfu/mL. […] The preservative efficacy test was modified in this study to reduce the total sample requirement and cost per analysis. Although the bacterial and fungal strains were not tested individually at specified concentrations, by comparing the overall bacterial and fungal log reduction values with the regulatory requirements, an assessment is made of the efficacy of the preservative against these microorganisms.
(§5) The formulations were prepared by adding the preservatives at the desired concentrations as per the I-optimal design table (Table II), generated using the software Strategy (Experiment Strategies Foundation & Process Builder, Inc.). All samples were incubated at 37° C. for 9 weeks. Because protein aggregation was known to be the primary degradation pathway, protein stability was examined by SEC and right-angle light scattering to monitor the formation of soluble and insoluble aggregates, respectively, and by UV spectroscopy to monitor changes in the protein concentration. The biological activity of the samples was assessed after 1 month at 37° C. Furthermore, to assess the antimicrobial efficacy of the formulations, samples were examined by the preservative screening test at the initial time point. Samples were incubated at room temperature, and the aerobic plate counts were measured based on the minimum requirements of the USP and BP/EP preservative efficacy tests at 24 hours, 7 days, and 14 days.

The test system of series [4] is antigen expressed on human T cells. The series can be described thus: Potency testing by FACS binding assay (flow cytometry). The following applies: 1 week at 45 ° C. The protocol: as §2
The biological activity (potency) of the protein was measured by flow cytometry, based on the binding of the antibody antigen expressed on human T cells.

Series [5] has as its system formulated humanized monoclonal antibody. The series can be described thus: Differential scanning calorimetry (DSC), denaturation temperature. It is filed as physicochemical. The following applies: for Effect on the denaturation temperature (in words): addition of the preservative, relative to control; for Tm (by DSC): initial time point, t0. On the procedure:
as §1
A decrease in the denaturation temperature reflects a destabilizing effect of the preservative on formulation stability. The denaturation temperature (Tm) of the sample was measured using the Pyris 1 differential scanning calorimeter (Perkin Elmer). A sample volume of 50 μL was taken from a 10 mg/mL protein sample and sealed in a stainless steel pan. The sample was held at 32° C. for 2 minutes, and heated to 100° C. at the rate of 10° C./min.
(In general: Differential scanning calorimetry records heat flow against a reference as temperature is scanned.)

Series [6] concerns Escherichia coli, Staphylococcus aureus, Pseudomonas aeruginosa. Put plainly: Preservative screening test (modified USP/EP preservative efficacy test), bacteria. It is filed as cell-based. The following applies: for antimicrobial efficacy against bacteria (regression analysis, in words): I-optimal design, 14 days at room temperature; for b-coefficient, Bacterial LR: ± 95% confidence limits; for Bacterial × 10^4 (cfu/mL): 1 week at 25 ° C., total bacterial count 8.78 × 10^4 cfu/mL; for maximal log reduction against bacteria (model simulation): individual preservative. The protocol: as §3, §4, §5

The mark [7] stands for this setting: main effect of the preservative (bi).
Setting [8] is: quadratic term of one preservative (bii).
Where [9] appears, read: single preservative, 0.2% chlorobutanol.

Consider 5 molecules from patent US20040009168A1, “Multidose antibody formulation” (priority 2002, published 2004).

On to `CCCOC(=O)c1ccc(O)cc1` [Propyl paraben, propyl paraben], for which the Visual analysis entry in series [1] (preservative 0.02%) is recorded as “Clear”. In addition, the “Effect of the preservative on antibody stability (in words)” value (“Effect of the preservative” for short) in series [2] is given as “stable”. For the same molecule, the “Monomer (%)” value in series [2] (preservative 0.0075%) is recorded as 97.89%; in series [2] (preservative 0.01%), 97.34%. Besides, the “Percent monomer (by SEC)” value was 85.3% in series [2] (preservative 0.02%) and 85% in series [2] (preservative 0.02%, listed as propyl paraben). For the same molecule, the “b-coefficient, Fungal LR” value in series [3] (setting [7]) is 0.29; in series [3] (setting [8]) it was 0.40. In addition, the “Fungi × 10^5 (cfu/mL)” value in series [3] (preservative 0.0075%) is recorded as 2 × 10^5 cfu/mL; in series [3] (preservative 0.01%) it was 0 × 10^5 cfu/mL. For the same molecule, the “Potency (%)” value was 74% in series [4] (preservative 0.0075%) and 68% in series [4] (preservative 0.01%). For the same molecule, the “Effect on the denaturation temperature (in words)” value in series [5] was “did not affect the denaturation temperature”. In series [5] (preservative 0.02%), the “Tm (by DSC)” value was 80.6 °C. For the same molecule, in series [6], the “antimicrobial efficacy against bacteria (regression analysis, in words)” value was “not effective”. Also, the “b-coefficient, Bacterial LR” value in series [6] (setting [7]) is reported as −0.14 ± 0.05; in series [6] (setting [8]) it was 0.26 ± 0.10. In addition, the “Bacterial × 10^4 (cfu/mL)” value in series [6] (preservative 0.0075%) and in series [6] (preservative 0.01%) was “TNTC” each time.
Regarding `CC(C)(O)C(Cl)(Cl)Cl` [Chlorobutanol, chlorobutanol], the “b-coefficient, Fungal LR” value in series [3] (setting [7]) is 0.07; in series [3] (setting [8]), −0.64. Further, the entries for the “Fungi × 10^5 (cfu/mL)” value in series [3] (preservative 0.05%), in series [3] (preservative 0.1%) and in series [3] (preservative 0.2%) were 18 × 10^5 cfu/mL, 14 × 10^5 cfu/mL and 0 × 10^5 cfu/mL, respectively. Further, in series [3] (setting [9]), the “log reduction value predicted by simulation, fungi” value is given as 1.2. The “maximal log reduction against bacteria (model simulation)” value in series [6] is 2.0. Further, the “b-coefficient, Bacterial LR” value in series [6] (setting [7]) stood at 0.27 ± 0.05; in series [6] (setting [8]), 0.17 ± 0.10. Besides, in series [6] (preservative 0.2%), the “Bacterial × 10^4 (cfu/mL)” value is 46 × 10^4 cfu/mL. In addition, the “log reduction value predicted by simulation, bacteria” value in series [6] (setting [9]) is 2.0.
For `COC(=O)c1ccc(O)cc1` [Methyl paraben, methyl paraben], the Visual analysis entry in series [1] (preservative 0.05%) and in series [1] (preservative 0.1%) was “Clear” throughout. Moreover, the “Effect of the preservative” value in series [2] is on record as “stable”. For the same molecule, the “Monomer (%)” value in series [2] (preservative 0.01%) turned out to be 98.31%; in series [2] (preservative 0.05%), 97.43%; in series [2] (preservative 0.1%) it was 97.18%. For the same molecule, the “Percent monomer (by SEC)” value is on record as 91.3% in series [2] (preservative 0.1%) and roughly 91% in series [2] (preservative 0.1%, listed as methyl paraben). Besides, the “b-coefficient, Fungal LR” value in series [3] (setting [7]) stood at 0.46; in series [3] (setting [8]) it was 0.00. The “Fungi × 10^5 (cfu/mL)” value in series [3] (preservative 0.01%) is listed as 26 × 10^5 cfu/mL; in series [3] (preservative 0.05%), 2 × 10^5 cfu/mL; in series [3] (preservative 0.1%), 0 × 10^5 cfu/mL. The entries for the “Potency (%)” value in series [4] (preservative 0.01%), in series [4] (preservative 0.05%) and in series [4] (preservative 0.1%) were 73%, 75% and 75%, respectively. Also, the “Effect on the denaturation temperature (in words)” value in series [5] is recorded as “did not affect the denaturation temperature”. The “Tm (by DSC)” value in series [5] (preservative 0.05%) worked out at 80.4 °C. Also, the “antimicrobial efficacy against bacteria (regression analysis, in words)” value in series [6] was “statistically significant antimicrobial efficacy”. In addition, the “maximal log reduction against bacteria (model simulation)” value in series [6] is 2.3. The “b-coefficient, Bacterial LR” value in series [6] (setting [7]) was found to be 0.60 ± 0.05; in series [6] (setting [8]), 0.12 ± 0.10. Besides, the “Bacterial × 10^4 (cfu/mL)” value in series [6] (preservative 0.01%) is recorded as “TNTC”; in series [6] (preservative 0.05%), “TNTC”; in series [6] (preservative 0.1%), 56 × 10^4 cfu/mL.
For `Oc1ccccc1` [Phenol, phenol], the Visual analysis entry in series [1] (preservative 0.1%) is reported as “Slightly cloudy”; in series [1] (preservative 0.5%), “Cloudy”. The “Effect of the preservative” value in series [2] was “not compatible with the protein”; in series [2] (listed as phenol), “caused the formation of both soluble and insoluble aggregates”. The “Percent monomer (by SEC)” value in series [2] (preservative 0.1%) was 62.7%; in series [2] (preservative 0.5%) it was 20.0%.
On to `Cc1cccc(O)c1` [m-cresol], for which the “Visual appearance of the formulations (in words)” value in series [1] (all tested concentrations, 2 days at 50° C.) was “precipitated the protein”. For the same molecule, the Visual analysis result in series [1] (preservative 0.1%) and in series [1] (preservative 0.3%) was “Precipitated” each time. Moreover, the “Effect of the preservative” value in series [2] was “not compatible with the protein”.
